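The compound was tested at five concentrations on cells cultured in 96-well plates, with a 48-hour exposure period. Here, GI50 denotes the concentration required for 50% inhibition of growth.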 Calls of active or inactive are those of the source. Cut-off read from the data, not from the text of the source: active = GI50 up to about 1.1 µM and inactive = higher.
What was measured:
Assay in all cases: NCI-60 cell line screen, 48 h
CCRF-CEM = test system: CCRF-CEM
MDA-N = test system: MDA-N
OVCAR-4 = test system: OVCAR-4
SK-MEL-2 = test system: SK-MEL-2
RPMI-8226 = test system: RPMI-8226
UACC-257 = test system: UACC-257
HCT-15 = test system: HCT-15
COLO 205 = test system: COLO 205
SW-620 = test system: SW-620
HCT-116 = test system: HCT-116
A549 = test system: A549
SF-268 = test system: SF-268
TK-10 = test system: TK-10
NCI-H226 = test system: NCI-H226
HOP-92 = test system: HOP-92
SK-MEL-5 = test system: SK-MEL-5
NCI/ADR-RES = test system: NCI/ADR-RES
PC-3 = test system: PC-3
SNB-75 = test system: SNB-75
T47D = test system: T47D
MDA-MB-231 = test system: MDA-MB-231
OVCAR-8 = test system: OVCAR-8
ACHN = test system: ACHN
HCC 2998 = test system: HCC 2998
A498 = test system: A498
U-251 = test system: U-251
CAKI-1 = test system: CAKI-1
MOLT-4 = test system: MOLT-4
SR = test system: SR
MDA-MB-435 = test system: MDA-MB-435
UO-31 = test system: UO-31
SK-MEL-28 = test system: SK-MEL-28
RXF 393 = test system: RXF 393
HL-60 = test system: HL-60
SF-295 = test system: SF-295
MCF7 = test system: MCF7
UACC-62 = test system: UACC-62
SF-539 = test system: SF-539
BT-549 = test system: BT-549
OVCAR-3 = test system: OVCAR-3
OVCAR-5 = test system: OVCAR-5
K562 = test system: K562
HT-29 = test system: HT-29
NCI-H522 = test system: NCI-H522
786-0 = test system: 786-0
IGROV-1 = test system: IGROV-1
DU-145 = test system: DU-145
KM12 = test system: KM12
Malme-3M = test system: Malme-3M
SNB-19 = test system: SNB-19
SN12C = test system: SN12C
M14 = test system: M14
NCI-H460 = test system: NCI-H460
NCI-H23 = test system: NCI-H23

CCOP(=O)(OCC)C(N)Cc1ccc(OC)c(OC)c1 (centres undefined)
GI50 (CCRF-CEM): > 100 µM (inactive)
GI50 (MDA-N): > 100 µM (inactive)
GI50 (OVCAR-4): > 100 µM (inactive)
GI50 (SK-MEL-2): > 100 µM (inactive)
GI50 (RPMI-8226): > 100 µM (inactive)
GI50 (UACC-257): > 100 µM (inactive)
GI50 (HCT-15): > 100 µM
GI50 (COLO 205): > 100 µM (inactive)
GI50 (SW-620): > 100 µM (inactive)
GI50 (HCT-116): > 100 µM (inactive)
GI50 (A549): > 100 µM (inactive)
GI50 (SF-268): > 100 µM (inactive)
GI50 (TK-10): > 100 µM (inactive)
GI50 (NCI-H226): > 100 µM (inactive)
GI50 (HOP-92): > 100 µM (inactive)
GI50 (SK-MEL-5): > 100 µM (inactive)
GI50 (NCI/ADR-RES): > 100 µM (inactive)
GI50 (PC-3): > 100 µM (inactive)
GI50 (SNB-75): > 100 µM (inactive)
GI50 (T47D): > 100 µM (inactive)
GI50 (MDA-MB-231): > 100 µM (inactive)
GI50 (OVCAR-8): > 100 µM (inactive)
GI50 (ACHN): > 100 µM (inactive)
GI50 (HCC 2998): > 100 µM (inactive)
GI50 (A498): > 100 µM (inactive)
GI50 (U-251): > 100 µM (inactive)
GI50 (CAKI-1): > 100 µM (inactive)
GI50 (MOLT-4): > 100 µM (inactive)
GI50 (SR): > 100 µM (inactive)
GI50 (MDA-MB-435): > 100 µM (inactive)
GI50 (UO-31): > 100 µM (inactive)
GI50 (SK-MEL-28): > 100 µM (inactive)
GI50 (RXF 393): > 100 µM (inactive)
GI50 (HL-60): > 100 µM (inactive)
GI50 (SF-295): > 100 µM (inactive)
GI50 (MCF7): 45.3 µM (inactive)
GI50 (UACC-62): > 100 µM (inactive)
GI50 (SF-539): > 100 µM (inactive)
GI50 (BT-549): > 100 µM (inactive)
GI50 (OVCAR-3): > 100 µM (inactive)
GI50 (OVCAR-5): > 100 µM (inactive)
GI50 (K562): > 100 µM (inactive)
GI50 (HT-29): > 100 µM (inactive)
GI50 (NCI-H522): > 100 µM (inactive)
GI50 (786-0): > 100 µM (inactive)
GI50 (IGROV-1): > 100 µM (inactive)
GI50 (DU-145): > 100 µM (inactive)
GI50 (KM12): > 100 µM (inactive)
GI50 (Malme-3M): > 100 µM (inactive)
GI50 (SNB-19): > 100 µM (inactive)
GI50 (SN12C): > 100 µM (inactive)
GI50 (M14): > 100 µM (inactive)
GI50 (NCI-H460): > 100 µM (inactive)
GI50 (NCI-H23): > 100 µM (inactive)
